ChEMBL document CHEMBL1130598, “Pyrroles and other heterocycles as inhibitors of p38 kinase” (Bioorg Med Chem Lett, 1998)

What was measured:
[1] = target: Mitogen-activated protein kinase 14 (Rattus norvegicus, UniProt P70618); assay: Inhibitory potency evaluated against rat p38 kinase
Rattus norvegicus [2] = species: Rattus norvegicus; assay: Inhibition of secondary paw swelling in rat adjuvant arthritis model […]; type: functional
[3] = target: MAP kinase p38 (Homo sapiens) (UniProt O15264+Q15759+Q16539+P53778); assay: Inhibition of p38 MAP kinase; type: protein assay
[4] = Bioavailability was determined at 3 mg/kg po dose in rats; type: ADME, organism-based; details: rat, in vivo
[5] = C max was determined at 10 mg/kg po dose in rats; type: ADME, organism-based; set-up: dose 10 mg/kg, route oral; details: rat, in vivo
[6] = target: RAF proto-oncogene serine/threonine-protein kinase (Homo sapiens, UniProt P04049); assay: Inhibition of RAF kinase
Sequence of RAF proto-oncogene serine/threonine-protein kinase (P04049 whole entry): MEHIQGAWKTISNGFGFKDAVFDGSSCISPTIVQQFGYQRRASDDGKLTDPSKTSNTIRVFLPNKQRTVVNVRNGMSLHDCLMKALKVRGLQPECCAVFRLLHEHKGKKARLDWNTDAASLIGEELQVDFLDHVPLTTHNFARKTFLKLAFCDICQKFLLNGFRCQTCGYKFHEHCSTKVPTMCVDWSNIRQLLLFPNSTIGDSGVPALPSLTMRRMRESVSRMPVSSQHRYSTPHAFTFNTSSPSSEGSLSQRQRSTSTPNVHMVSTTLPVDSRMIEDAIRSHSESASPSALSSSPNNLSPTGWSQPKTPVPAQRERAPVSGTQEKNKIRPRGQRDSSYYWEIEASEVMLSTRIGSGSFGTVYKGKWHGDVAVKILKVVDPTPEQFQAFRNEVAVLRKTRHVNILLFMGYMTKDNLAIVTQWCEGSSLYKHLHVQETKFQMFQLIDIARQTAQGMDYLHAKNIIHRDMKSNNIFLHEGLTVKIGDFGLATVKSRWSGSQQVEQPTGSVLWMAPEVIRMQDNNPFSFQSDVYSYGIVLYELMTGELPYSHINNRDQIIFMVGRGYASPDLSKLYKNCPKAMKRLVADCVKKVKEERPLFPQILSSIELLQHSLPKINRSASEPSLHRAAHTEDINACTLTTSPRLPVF

[7] = target: Mitogen-activated protein kinase 11 (Homo sapiens, UniProt Q15759); assay: Inhibition of Mitogen-activated protein kinase p38 beta
Sequence of Mitogen-activated protein kinase 11 (Q15759 whole entry): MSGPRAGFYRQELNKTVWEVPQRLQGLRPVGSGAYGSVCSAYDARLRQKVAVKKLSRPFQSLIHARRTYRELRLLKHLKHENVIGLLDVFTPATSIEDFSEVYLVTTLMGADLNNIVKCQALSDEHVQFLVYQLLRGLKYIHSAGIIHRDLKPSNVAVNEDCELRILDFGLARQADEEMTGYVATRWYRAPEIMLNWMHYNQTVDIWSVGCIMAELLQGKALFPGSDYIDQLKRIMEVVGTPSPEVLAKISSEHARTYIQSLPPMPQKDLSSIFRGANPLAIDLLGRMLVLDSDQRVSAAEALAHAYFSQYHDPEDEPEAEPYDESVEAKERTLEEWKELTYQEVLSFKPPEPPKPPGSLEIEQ

[8] = Pharmacokinetic parameter Vdss was determined at 5 mg/kg i.v. dose in rats; type: ADME, organism-based; set-up: dose 5 mg/kg, route intravenous; details: rat, in vivo, iv, read-out: Vdss
[9] = target: T1, Mitogen-activated protein kinase 12 (Homo sapiens) (UniProt P53778); details: 50 uM
T1 sequence (whole entry): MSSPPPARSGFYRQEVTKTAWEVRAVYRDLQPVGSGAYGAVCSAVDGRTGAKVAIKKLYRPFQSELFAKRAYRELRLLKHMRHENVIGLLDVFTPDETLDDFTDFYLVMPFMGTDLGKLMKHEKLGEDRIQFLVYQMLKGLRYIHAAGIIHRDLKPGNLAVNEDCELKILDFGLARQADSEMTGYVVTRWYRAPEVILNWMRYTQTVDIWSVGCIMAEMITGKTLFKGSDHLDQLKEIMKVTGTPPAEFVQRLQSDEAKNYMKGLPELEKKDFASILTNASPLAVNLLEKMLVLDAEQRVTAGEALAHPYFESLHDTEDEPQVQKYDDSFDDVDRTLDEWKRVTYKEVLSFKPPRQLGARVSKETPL
Description: Inhibition of Mitogen-activated protein kinase p38 gamma at 50 uM

[10] = Pharmacokinetic parameter area under curve was determined at 3 mg/kg po dose in rats; type: ADME, organism-based; set-up: dose 3 mg/kg, route oral; details: rat, in vivo
[11] = Pharmacokinetic parameter half-life was determined at 5 mg/kg i.v. dose in rats; type: ADME, organism-based; set-up: dose 5 mg/kg, route intravenous; details: rat, in vivo, iv
[12] = Pharmacokinetic parameter Vdss was determined at 2 mg/kg i.v. dose in rats; type: ADME, organism-based; set-up: dose 2 mg/kg, route intravenous; details: rat, in vivo, iv, read-out: Vdss
Rattus norvegicus [13] = species: Rattus norvegicus; assay: Inhibition of secondary paw swelling in rat adjuvant arthritis model; type: functional
[14] = Pharmacokinetic parameter half-life was determined at 2 mg/kg i.v. dose in rats; type: ADME, organism-based; set-up: dose 2 mg/kg, route intravenous; details: rat, in vivo, iv
[15] = target: T2, Mitogen-activated protein kinase 9 (Homo sapiens, UniProt P45984); assay: Inhibition of c-Jun N-terminal kinase 2-alpha 2
T2 sequence (P45984 whole entry): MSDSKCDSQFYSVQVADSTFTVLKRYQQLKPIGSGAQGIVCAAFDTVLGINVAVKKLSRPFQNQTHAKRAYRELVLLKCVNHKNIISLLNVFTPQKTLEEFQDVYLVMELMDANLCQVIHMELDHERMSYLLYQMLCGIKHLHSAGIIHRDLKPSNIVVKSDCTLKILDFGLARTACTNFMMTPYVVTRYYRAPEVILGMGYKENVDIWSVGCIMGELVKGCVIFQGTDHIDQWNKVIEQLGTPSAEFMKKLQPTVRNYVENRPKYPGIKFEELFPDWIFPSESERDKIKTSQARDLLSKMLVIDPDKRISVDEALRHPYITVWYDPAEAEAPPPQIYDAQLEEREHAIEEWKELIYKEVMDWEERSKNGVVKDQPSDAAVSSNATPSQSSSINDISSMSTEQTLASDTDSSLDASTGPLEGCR

[16] = Pharmacokinetic parameter half-life was determined at 10 mg/kg po dose in rats; type: ADME, organism-based; set-up: dose 10 mg/kg, route oral; details: rat, in vivo
[17] = target: Mitogen-activated protein kinase 14 (Homo sapiens, UniProt Q16539); assay: Inhibition of Mitogen-activated protein kinase p38 alpha
Sequence of Mitogen-activated protein kinase 14 (Homo sapiens, UniProt Q16539) (Q16539 whole entry): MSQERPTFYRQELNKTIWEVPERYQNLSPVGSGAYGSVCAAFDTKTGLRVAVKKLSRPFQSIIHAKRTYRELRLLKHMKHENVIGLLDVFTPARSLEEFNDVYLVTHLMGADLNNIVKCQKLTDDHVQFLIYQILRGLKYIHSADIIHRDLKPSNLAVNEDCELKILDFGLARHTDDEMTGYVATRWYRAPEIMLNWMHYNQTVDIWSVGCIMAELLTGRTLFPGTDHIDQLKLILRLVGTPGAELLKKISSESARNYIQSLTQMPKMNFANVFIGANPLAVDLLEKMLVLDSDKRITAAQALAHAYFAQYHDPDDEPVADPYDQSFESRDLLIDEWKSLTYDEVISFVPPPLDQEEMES

[18] = T max was determined at 10 mg/kg po dose in rats; type: ADME, organism-based; set-up: dose 10 mg/kg, route oral; details: rat, in vivo
[19] = target: T3, Mitogen-activated protein kinase 8 (Homo sapiens, UniProt P45983); assay: Inhibition of c-Jun N-terminal kinase 1-alpha 1
T3 sequence (P45983 whole entry): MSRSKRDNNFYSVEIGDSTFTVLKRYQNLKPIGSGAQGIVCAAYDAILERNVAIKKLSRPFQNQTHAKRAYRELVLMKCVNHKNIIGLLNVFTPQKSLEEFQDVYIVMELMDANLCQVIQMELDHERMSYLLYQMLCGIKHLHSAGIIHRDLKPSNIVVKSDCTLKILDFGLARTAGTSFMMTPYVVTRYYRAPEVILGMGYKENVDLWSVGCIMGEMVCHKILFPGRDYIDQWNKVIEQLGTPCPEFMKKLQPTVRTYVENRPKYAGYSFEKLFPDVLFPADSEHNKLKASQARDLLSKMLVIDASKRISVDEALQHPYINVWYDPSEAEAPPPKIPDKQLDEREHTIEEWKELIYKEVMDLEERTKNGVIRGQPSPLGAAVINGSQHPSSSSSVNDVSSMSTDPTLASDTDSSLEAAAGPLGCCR

Rattus norvegicus [20] = assay: Pharmacokinetic parameter plasma clearance was determined at 2 mg/kg i.v. dose in rats; type: ADME, organism-based; set-up: dose 2 mg/kg, route intravenous; details: in vivo, iv
[21] = Pharmacokinetic parameter half-life was determined at 3 mg/kg po dose in rats; type: ADME, organism-based; set-up: dose 3 mg/kg, route oral; details: rat, in vivo
[22] = target: T2, Mitogen-activated protein kinase 9; assay: Inhibition of c-Jun N-terminal kinase 2-beta 1
[23] = Pharmacokinetic parameter area under curve was determined at 10 mg/kg po dose in rats; type: ADME, organism-based; set-up: dose 10 mg/kg, route oral; details: rat, in vivo
[24] = C max was determined at 3 mg/kg po dose in rats; type: ADME, organism-based; set-up: dose 3 mg/kg, route oral; details: rat, in vivo
Rattus norvegicus [25] = assay: Pharmacokinetic parameter plasma clearance was determined at 5 mg/kg i.v. dose in rats; type: ADME, organism-based; set-up: dose 5 mg/kg, route intravenous; details: in vivo, iv
[26] = Pharmacokinetic parameter area under curve was determined at 2 mg/kg i.v. dose in rats; type: ADME, organism-based; set-up: dose 2 mg/kg, route intravenous; details: rat, in vivo, iv
[27] = Pharmacokinetic parameter area under curve was determined at 5 mg/kg i.v. dose in rats; type: ADME, organism-based; set-up: dose 5 mg/kg, route intravenous; details: rat, in vivo, iv
[28] = T max was determined at 3 mg/kg po dose in rats; type: ADME, organism-based; set-up: dose 3 mg/kg, route oral; details: rat, in vivo
Rattus norvegicus [29] = assay: Inhibition of secondary paw swelling in rat adjuvant arthritis model at 20 mg/kg/ b.i.d.; type: functional; details: intraduodenal
Rattus norvegicus [30] = assay: Inhibition of secondary paw swelling in rat adjuvant arthritis model at 80 mg/kg b.i.d.; type: functional; details: intraduodenal
[31] = target: T3, Mitogen-activated protein kinase 8; assay: Inhibition of c-Jun N-terminal kinase 1-alpha 1 at 5 uM

Sequence of Mitogen-activated protein kinase 14 (Rattus norvegicus, UniProt P70618) (P70618 whole entry): as the sequence (Q16539 whole entry) above, with I17V, L48H, T263A, D321E, L332F counted along it

Work on `COc1ccc(OC)c(-c2cc(-c3ccncc3)c(-c3ccccc3)[nH]2)c1` yielded an IC50 [1] of 5000 nM.
Molecule `Nc1ccc(-c2cc(-c3ccncc3)c(-c3ccccc3)[nH]2)cc1` has an IC50 [1] of 28 nM.
In the case of `c1ccc(-c2cc(-c3ccncc3)c(-c3ccncc3)[nH]2)cc1`, the IC50 [1] is reported as 1220 nM.
`O=c1c(-c2ccc(F)cc2)c(-c2ccncc2)[nH]n1-c1ccc(Cl)cc1` gave an IC50 [1] of 35 nM.
With `Clc1ccc(-c2[nH]c(-c3ccccc3)cc2-c2ccncc2)cc1` the IC50 [1] was 18 nM.
In the case of `c1ccc(-c2cc(-c3ccncc3)c(-c3cccnc3)[nH]2)cc1`, the IC50 [1] is reported as 240 nM.
`COc1ccc(-c2cc(-c3ccncc3)c(-c3ccccc3)[nH]2)cc1` showed an IC50 [1] of 280 nM.
`CSc1ccc(-c2[nH]c(-c3ccccc3)cc2-c2ccncc2)cc1` showed an IC50 [1] of 690 nM.
`COc1ccc(-c2cc(-c3ccncc3)c(-c3ccc(F)cc3)[nH]2)cc1` showed an IC50 [1] of 60 nM.
In the case of `Fc1cccc(-c2cc(-c3ccncc3)c(-c3ccccc3)[nH]2)c1`, the IC50 [1] is reported as 42 nM.
Work on `Oc1c(-c2ccncc2)c(-c2ccc(F)cc2)nn1-c1ccc(Cl)cc1` yielded an IC50 [1] of 500 nM and an Inhibition (Rattus norvegicus [2]) of 43%.
Molecule `Fc1ccc(-c2oc(-c3ccc(Cl)cc3)cc2-c2ccncc2)cc1` has an IC50 [1] of 630 nM.
For `Cc1cc(-c2cc(-c3ccc([S+](C)[O-])cc3)[nH]c2-c2ccc(F)cc2)ccn1` (configuration not stated), the IC50 [1] was 6 nM.
`C[S+]([O-])c1ccc(-n2nc(-c3ccncc3)c(-c3ccc(F)cc3)c2O)cc1` (configuration not stated) gave an IC50 [1] of 83 nM.
In the case of `O=[N+]([O-])c1cccc(-c2cc(-c3ccncc3)c(-c3ccccc3)[nH]2)c1`, the IC50 [1] is reported as 53 nM.
For `Fc1ccc(-c2cc(-c3ccc(Cl)cc3)[nH]c2-c2ccncc2)cc1`, the IC50 [1] was 1400 nM.
In the case of `N#Cc1cccc(-c2[nH]c(-c3ccccc3)cc2-c2ccncc2)c1`, the IC50 [1] is reported as 53 nM.
With `c1ccc(-c2cc(-c3ccncc3)c(-c3ccoc3)[nH]2)cc1` the IC50 [1] was 660 nM.
For `Fc1ccc(-c2[nH]c(-c3ccccc3)cc2-c2ccncc2)c(F)c1`, the IC50 [1] was 29 nM.
Work on `Fc1ccc(-c2[nH]c(-c3ccccc3)cc2-c2ccccc2)cc1` yielded an inhibition [3] of 79%.
Molecule `Fc1ccc(-c2[nH]c(-c3ccc(Br)cc3)cc2-c2ccncc2)cc1` has an IC50 [1] of 100 nM.
For `COc1ccc(OC)c(-c2cc(-c3ccncc3)c(-c3ccc(F)cc3)[nH]2)c1`, the IC50 [1] was 1700 nM.
`Cc1cnccc1-c1cc(-c2ccc([S+](C)[O-])cc2)[nH]c1-c1ccc(F)cc1` (configuration not stated) gave an IC50 [1] of 260 nM.
Work on `C[S+]([O-])c1ccc(-c2cc(-c3ccncc3)c(-c3ccc(F)cc3)[nH]2)cc1` (configuration not stated) yielded a bioavailability [4] of 25.6%, a Cmax [5] of 5.71 µM and an IC50 [1] of 5.1 nM. The IC50 [6] was 470 nM, the IC50 [7] was 8.1 nM and the Vd [8] was 1.81 L/kg. It also gave an inhibition [9] of 42%, an AUC [10] of 0.81 µM·h and a half-life [11] of 1.06 h. For the same molecule, the Vd [12] was 2.23 L/kg, the ID50 (Rattus norvegicus [13]) was 7.4 mg kg-1 b.i.d and the half-life [14] was 0.652 h. The IC50 [15] was 7610 nM, the half-life [16] was 2.59 h and the IC50 [17] was 5 nM. For the same molecule, the Tmax [18] was 1.05 h, the IC50 [19] was 16000 nM and the Clp (Rattus norvegicus [20]) was 42.6 mL/min/kg. The half-life [21] was 2.04 h, the IC50 [22] was 1500 nM and the AUC [23] was 16.7 µM·h. The Cmax [24] was 0.31 µM, the Clp (Rattus norvegicus [25]) was 22.5 mL/min/kg and the AUC [26] was 2.1 µM·h. The AUC [27] was 10 µM·h, the Tmax [28] was 1 h and the inhibition in vivo at 20 mg/kg (Rattus norvegicus [29]) was 90%.
With `CCOC(=O)c1ccc(-c2cc(-c3ccncc3)c(-c3ccccc3)[nH]2)cc1` the IC50 [1] was 130 nM.
`C[S+]([O-])c1ccc(-c2nc(-c3ccc(F)cc3)c(-c3ccncc3)[nH]2)cc1` (configuration not stated) [SB-203580] gave an ED50 (Rattus norvegicus [13]; Rattus norvegicus, read-out: ID50 (the source's name)) of 80 mg/kg/day, an inhibition in vivo at 80 mg/kg (Rattus norvegicus [30]) of 74% and an inhibition [31] of 50%.
With `Fc1ccc(-c2[nH]c(-c3ccccc3)cc2-c2ccncc2)cc1` the IC50 [1] was 12 nM.
Molecule `O=[N+]([O-])c1ccc(-c2cc(-c3ccncc3)c(-c3ccccc3)[nH]2)cc1` has an IC50 [1] of 6.1 nM.
